Patent US20180042874A1, “METHOD FOR TREATING OSTEOPOROSIS” (China Medical University, priority 2016, published 2018)

Key:
JNK = test: Western blot of MAPK pathway, phosphorylated JNK; assay type: cell-based, mouse; conditions: 10 μg/ml co-treated with 100 ng/ml RANKL, 0-60 minutes
Description: (§1) The effect of the compound of formula I on the protein expression of osteoclast MAPKs pathways induced by receptor activator of nuclear factor κB ligand was studied, experiments were performed by using the Western blot method; RAW 264.7 cells were rinsed in ice-cold PBS, cell lysis buffer was added, the components of the buffer solution included: 10 mM 4-(2-hydroxyethyl)-1-piperazineethanesulfonic acid (HEPES), 1.5 mM MgCl2, 0.5 mM dithiothreitol (DTT), 0.5 μg/ml leupeptin and 6.4% Nonidet P-40, reacted on ice for 15 minutes. The cells were scraped off with a spatula, collected into a 1.5 ml centrifuge tube, the cells were thoroughly broken by using a shaker; centrifuged at 12,000 rpm, 4° C. for 10 minutes; supernatant was added into a new 1.5 ml centrifuge tube; boiled with IX sodiumdodecyl sulfate (SDS) sample buffer, followed by electrophoresis using 10 to 12% SDS-PAGE. […] The transfer membrane was rinsed again and the membrane loaded with chemical luminescence reagent ECL was allowed to react with a photosensitive sheet in a darkroom for a suitable period of time, the photosensitive sheet then reacted with the developer. After the photosensitive sheet was exposed to light a band-shaped antibody-binding proteins was observed, quantified by the density of the bands. […]

c-Fos = test: Western blot of MAPK downstream protein c-Fos; assay type: cell-based, mouse; conditions: 10 μg/ml co-treated with 100 ng/ml RANKL, 48 hours
Description: as §1

NFATc2 = test: Western blot of MAPK downstream protein NFATc2; assay type: cell-based, mouse; conditions: 10 μg/ml co-treated with 100 ng/ml RANKL, 48 hours
Description: as §1

NF-κB p65 = test: Western blot of NF-κB p65; assay type: cell-based, mouse; conditions: 10 μg/ml co-treated with 100 ng/ml RANKL, 48 hours
Description: as §1

[1] = system: osteolytic activity of osteoclast cells induced by receptor activator of nuclear factor κB ligand; test: Osteolytic activity of osteoclasts on corning osteo assay surface plate; assay type: cell-based, mouse; conditions: 10 μg/ml co-treated with 100 ng/ml RANKL, 12 days
Excerpt: Effect of the compound of formula I on receptor activator of nuclear factor κB ligand-induced osteocytic activity of the osteoclast cells Osteoclast is a multinuclear cell, which differentiates because of the stimulation of macrophage colony stimulating factor and receptor activator of nuclear factor κB ligand, after differentiation the folds on the edge of the osteoclast form a resorption groove on the cell membrane and the bone surface is […]. In this space, the […] secretes some enzymes and acids. These acids activate the enzymes to initiate osteolysis of bone mineral matrix. […]
In order to confirm the effect of the compound of formula I on the bone resorption capability of differentiated osteoclasts, RAW 264.7 cells were cultured in a 24-well plate (osteo assay plate, 24 well; corning incorporated) containing artificial bone material, the cell number of each well was 2×10^3 cell/ml. […] The number of grooves per each well was counted under a microscope 40× and further photographed for observation.

ovariectomized rats = test: Bone density in ovariectomized osteoporosis rat model; assay type: in vivo, Sprague-Dawley (SD) female rats
Description: (§2) Inducing osteoporosis animal models and experimental methods: • 1. 6-month old Sprague-Dawley (SD) female rats were purchased; • 2. These rats were divided into 7 groups, of which Group 1 was given pseudo-surgery, Group 2-7 underwent bilateral ovariectomies; • 3. On the 6th day after surgery, 1 mL/kg of vehicle alone was given orally to Group 1, Group 2 daily, Zoledronic Acid and Prolia were administered weekly by injections to Group 3, Group 4, respectively; 1, 3, 10 mg/kg of the compound of formula I was given orally every 3 days to Groups 5-7, respectively; • 4. Body weight and bone density were measured weekly, blood was drawn until the 118th day; • 5. Rats were then sacrificed to obtain kidneys, livers and rat tibia; • 6. Data were consolidated and processed.

[2] = Body weight in ovariectomized osteoporosis rat model; assay type: in vivo, Sprague-Dawley (SD) female rats; conditions: rat, in vivo
Description: as §2

hepatitis B virus (HBV) = conditions: human hepatocellular carcinoma cells; cited from earlier work

With `CNC(=O)N[C@]1(C)CCC[C@@]2(C)C3CC[C@@]4(C)C[C@]3(CCC21)CC4=O` (single isomer, unassigned; ent-16) [compound of formula I, ent-16-oxobeyeran-19-N-methylureido] the “expression of phosphorylated JNK” value (JNK) was “decreased”, the c-Fos protein expression (c-Fos) was “significantly reduced” and the NFATc2 protein expression (NFATc2) was “significantly reduced”. The “NF-κB p65 protein expression” value (NF-κB p65) was “protein expression was reduced”, the “eroded area of the artificial bone material” value [1] was “substantially reduced” and the “osteolytic activity of osteoclast cells” value [1] was “inhibited”. The “effect on reduced tibial bone density caused by ovarian removal” value (ovariectomized rats; ovariectomized rats, 1, 3, 10 mg/kg PO once every 3 days, 19 weeks after ovarian removal) was “improve the reduced tibial bone density”, the “increase of tibial bone density” value (ovariectomized rats; ovariectomized rats, PO once every 3 days, as compared to the experimental group) was 10% and the “effect on body weight” value [2] was “different from commercially available drugs”. The “secretion of hepatitis B virus antigen (HBeAg)” value (hepatitis B virus (HBV)) was “effectively suppress” and the “secretion of hepatitis B virus surface antigen (HBsAg)” value (hepatitis B virus (HBV)) was “effectively suppress”.
